Assay: Uptake in plasma and compartments of the eye in a rabbit model (subcutaneous or topical ocular dosing)
Format: in vivo, Dutch Belted Rabbits
Conditions: in vivo
Procedure: 3 mg/mL elamipretide or compound of Formula IIa in saline was dosed subcutaneously at 1.5 mg/kg. A 3 mg/mL elamipretide or compound of Formula IIa formulation was prepared by dissolving 81 mg elamipretide in a total volume of 27 mL of sterile saline and mixing well. • (ii) Groups 2 & 4: Topical Ocular Formulation for administration of elamipretide or compound of Formula IIa
For each preparation (i.e., elamipretide or compound of Formula IIa, sodium chloride (105 mg) was dissolved in 16 mL of water for injection with mixing. With mixing, 82.8 mg of sodium phosphate monobasic, monohydrate was then added. With mixing, 0.400 mL of a 5 mg/mL benzalkonium chloride solution in water (to be prepared by diluting 0.100 mL of a 50% benzalkonium chloride solution in water to 10 mL with water for injection) was then added. Two hundred (200) mg of elamipretide or compound of Formula IIa was then added with mixing and the formulation pH was adjusted to 5.8 (+/−0.1) with 1 M sodium hydroxide in water solution. The final volume of the formulation was then be brought to 20 mL using water for injection. Each formulation (elamipretide or compound of Formula IIa) was used for topical ocular administration at a dose of 50 μL/eye OU.
A total of 48 male Dutch Belted Rabbits were used in the study. Each animal was approximately 2 kg.
For subcutaneous administration, rabbits were dosed via a single subcutaneous injection of 1.5 mg/kg and at the scruff of the neck between the shoulder blades using a syringe with an attached 27G×½ inch needle (or similar). The site of injection was checked to ensure no leakage of dose immediately following administration.
For topical administration, a calibrated Gilson positive displacement pipette was used to administer 50 μL of formulation onto the globe the eye while the lower eyelid was pulled away from the globe. Administration was twice daily (i.e., BID). Doses were administered to both eyes, every 8 to 12 hours for 11 total doses.
Terminal blood samples (approximately 6 mL) were collected from two animals/group/timepoint via the central ear artery at approximately 0.5, 1, 2, 4, 8, and 24 hours postdose. Blood samples were collected into tubes containing K2EDTA as the anticoagulant and inverted several times to ensure adequate mixing of blood and anticoagulant and placed on ice. Within 30 min of collection, samples were centrifuged to harvest plasma and stored at −80° C. until analyzed.
Following blood collection, designated animals were euthanized by barbiturate overdose. Following euthanasia, both eyes of each rabbit were harvested and dissected for collection of ocular tissue and fluid. Optic nerve and retina were collected from Group 1 and 3 animals, and aqueous humor, retina, conjunctiva, cornea, sclera, and optic nerve were collected from Group 2 and 4 animals. Following dissection, all fluids and tissues were placed in pre-tared tubes, weight collected, and then flash frozen on dry ice and placed in a freezer at −80° C. or lower until analyzed. Concentrations of test article in plasma in the ocular tissues (ng/g tissue) and fluids (ng/mL fluid) were determined utilizing a method previously developed by the CRO.

In the case of `Cc1cc(O)cc(C)c1C[C@H](NC(=O)[C@H](N)CCCNC(=N)N)C(=O)N[C@@H](CCCCN)c1nc(Cc2ccccc2)no1.Cl.Cl.Cl` [Formula IIa, (R)-2-amino-N—((S)-1-(((S)-5-amino-1-(3-benzyl-1,2,4-oxadiazol-5-yl)pentyl)amino)-3-(4-hydroxy-2,6-dimethylphenyl)-1-oxopropan-2-yl)-5-guanidinopentanamide], the “accumulation in eye tissues (retina, conjunctiva, cornea, aqueous humor, optic nerve head) compared with elamipretide” value was “higher concentration”, the “concentration in the eye tissue examined compared with elamipretide (conjunctiva, cornea, aqueous humor, optical nerve head)” value was “higher” and the “concentration in plasma, elamipretide compared with compound of Formula IIa” value (1.5 mg/kg) was “roughly equivalent”.

From patent publication US20260263550A1, “METHODS AND COMPOSITIONS FOR TREATING, PREVENTING, INHIBITING, AMELIORATING OR DELAYING THE ONSET OF OPHTHALMIC CONDITIONS” (Stealth BioTherapeutics Inc., priority 2021, published 2026)
